According to patent US20240148723A1, “MYCOBACTERIUM TUBERCULOSIS COMPOSITIONS AND METHODS” (priority 2021, published 2024):
Values after ≈ are worked out from the molar mass of the structure shown.

Test system: M. tuberculosis
Type: cell-based, Mycobacterium tuberculosis
Details: pH 6.8

Row | SMILES | MIC in the media 7H9 [µg/mL] | MIC in the media L-Ala [µg/mL] | MIC in the media SBA [µg/mL] | MIC in the media SLac [µg/mL]
1 | CCN(CC)CCOc1ccc(C(=C(Cl)c2ccccc2)c2ccccc2)cc1.O=C(O)CC(O)(CC(=O)O)C(=O)O (mixture of isomers) [compound 35770] | ≥ 14.95 | 1.91 | 1.91 | 0.96
2 | N#CC(c1ccccc1)C(CC(=NO)c1ccccc1)c1ccccc1 (mixture of isomers) [compound 186200] | ≥ 136.16 | 17.02 | 34.04 | 2.13
3 | COC(=O)c1cccc([N+](=O)[O-])c1 [compound 1327] | ≥ 72.48 | 9.06 (≈ 50 µM) | 4.53 (≈ 25 µM) | 2.27 (≈ 12.5 µM)
4 | NC(=O)c1ccc([N+](=O)[O-])cc1 [compound 2902] | ≥ 66.44 | 16.61 (≈ 100 µM) | 33.22 (≈ 200 µM) | 8.31 (≈ 50 µM)
5 | CC(C)c1ccc2c(c1)CCC1C(C)(C(=O)O)CCCC21C (centres unmarked) [compound 2952] | ≥ 30.04 | 3.76 (≈ 12.5 µM) | 7.51 (≈ 25 µM) | 1.88 (≈ 6.26 µM)
6 | O=Nc1ccc(O)c2ncccc12 [compound 3852] | ≥ 4.36 | 2.18 (≈ 12.5 µM) | 2.18 (≈ 12.5 µM) | 1.09 (≈ 6.26 µM)
7 | Oc1c(Cl)cc(Cl)c2cccnc12 [compound 3904] | ≥ 4 | 0.03 (≈ 0.14 µM) | 0.03 (≈ 0.14 µM) | 0.03 (≈ 0.14 µM)
8 | CCOC(=O)c1ccc([N+](=O)[O-])cc1 [compound 6763] | ≥ 78.08 | 9.76 (≈ 50 µM) | 4.88 (≈ 25 µM) | 4.88 (≈ 25 µM)
9 | COC(=O)c1cc([N+](=O)[O-])cc([N+](=O)[O-])c1 [compound 7317] | ≥ 90.44 | 11.31 (≈ 50 µM) | 5.65 (≈ 25 µM) | 5.65 (≈ 25 µM)
10 | CCC(C)(C)c1ccc(Oc2cccc(C(=O)O)c2)cc1 [compound 7962] | ≥ 28.43 | 3.55 (≈ 12.5 µM) | 3.55 (≈ 12.5 µM) | 0.45 (≈ 1.58 µM)
11 | CN(C)c1ccc(N=Nc2ccccn2)cc1 [compound 9358] | ≥ 22.63 | 5.66 (≈ 25 µM) | 1.41 (≈ 6.23 µM) | 1.41 (≈ 6.23 µM)
12 | N=C(N)c1ccc(OCCCCCOc2ccc(C(=N)N)cc2)cc1 [compound 9921] | ≥ 8.51 | 2.13 (≈ 6.26 µM) | 4.26 (≈ 12.5 µM) | 1.09 (≈ 3.2 µM)
13 | Oc1ccc(Cc2ccccc2Cl)c(O)c1 [compound 11149] | ≥ 23.47 | 5.87 (≈ 25 µM) | 2.93 (≈ 12.5 µM) | 1.47 (≈ 6.26 µM)
14 | Oc1ccc(Cc2ccc(Cl)cc2)c(O)c1 [compound 11150] | ≥ 23.47 | 5.87 (≈ 25 µM) | 2.93 (≈ 12.5 µM) | 1.47 (≈ 6.26 µM)
15 | COc1ccc2nc3cc(Cl)ccc3c(Nc3cc(C(C)C)c(O)cc3C)c2c1 [compound 13051] | ≥ 20.35 | 2.54 (≈ 6.24 µM) | 2.54 (≈ 6.24 µM) | 1.30 (≈ 3.19 µM)
16 | NC(=O)c1cccnc1 [compound 13128] | ≥ 800 | 400 (≈ 3280 µM) | 400 (≈ 3280 µM) | 400 (≈ 3280 µM)
17 | COc1cc(N)c2ncccc2c1 [compound 13573] | ≥ 8.71 | 8.71 (≈ 50 µM) | 8.71 (≈ 50 µM) | 17.42 (≈ 100 µM)
18 | NC(=O)c1cnccn1 [compound 14911] | ≥ 800 | 200 (≈ 1620 µM) | 100 (≈ 812 µM) | 200 (≈ 1620 µM)

Row | SMILES | MIC in the media 7H9 [µg/mL] | MIC in the media L-Ala [µg/mL] | MIC in the media SBA [µg/mL] | MIC in the media SLac [µg/mL]
19 | CCCOC(=O)c1ccc(N)cc1 [compound 23516] | ≥ 800 | 0.12 (≈ 0.67 µM) | 0.25 (≈ 1.39 µM) | 0.25 (≈ 1.39 µM)
20 | CN(C)CCCN1c2ccc3ccccc3c2Sc2cccc(Cl)c21 [compound 24113] | ≥ 9.22 | 2.31 (≈ 6.26 µM) | 2.31 (≈ 6.26 µM) | 1.18 (≈ 3.2 µM)
21 | CCOc1ccc(Nc2c3ccccc3nc3ccccc23)cc1 [compound 30205] | ≥ 1.97 | 1.97 (≈ 6.27 µM) | 3.93 (≈ 12.5 µM) | 1.97 (≈ 6.27 µM)
22 | COC(=O)c1ccc(N)cc1O [compound 30263] | ≥ 4.18 | 1.05 (≈ 6.28 µM) | 4.18 (≈ 25 µM) | 1.05 (≈ 6.28 µM)
23 | CCCCCc1cc(O)cc2c1Oc1cc(O)cc(C(=O)CCCC)c1C(=O)O2 [compound 31867] | ≥ 39.84 | 4.98 (≈ 12.5 µM) | 2.49 (≈ 6.25 µM) | 0.64 (≈ 1.61 µM)
24 | CCOC(=O)c1cccc([N+](=O)[O-])c1 [compound 32740] | ≥ 78.08 | 2.44 (≈ 12.5 µM) | 4.88 (≈ 25 µM) | 2.44 (≈ 12.5 µM)
25 | O=C1CC(c2ccc(O)cc2)Oc2cc(O)cc(O)c21 (centres unmarked) [compound 34875] | ≥ 27.23 | 6.81 (≈ 25 µM) | 6.81 (≈ 25 µM) | 1.70 (≈ 6.24 µM)
26 | C=C1C(=O)OC2CC1C(OC(C)=O)C/C(C)=C/CC/C(C)=C\CCC2(C)O (centres unmarked) [compound 36437] | ≥ 37.65 | 9.41 (≈ 25 µM) | 4.71 (≈ 12.5 µM) | 2.35 (≈ 6.24 µM)
27 | O=c1c(-c2ccc(O)cc2)coc2cc(O)cc(O)c12 [compound 36586] | ≥ 108.10 | 13.51 (≈ 50 µM) | 13.51 (≈ 50 µM) | 1.69 (≈ 6.25 µM)
28 | NC(=O)c1cccc(N)c1 [compound 36962] | ≥ 54.48 | 13.62 (≈ 100 µM) | 13.62 (≈ 100 µM) | 13.62 (≈ 100 µM)
29 | NC(=O)c1ccc(N)cc1 [compound 36963] | ≥ 54.48 | 6.81 (≈ 50 µM) | 13.62 (≈ 100 µM) | 3.41 (≈ 25 µM)
30 | NC(=O)c1cccc([N+](=O)[O-])c1 [compound 37327] | ≥ 66.44 | 66.44 (≈ 400 µM) | 33.22 (≈ 200 µM) | 66.44 (≈ 400 µM)
31 | C=CCOc1c(CCC)cc(CCC)cc1C(N)=O [compound 37955] | ≥ 26.14 | 13.07 (≈ 50 µM) | 13.07 (≈ 50 µM) | 3.27 (≈ 12.5 µM)
32 | CCOC(=O)CCCCCCCCCCCCC1C=CCC1 (centres unmarked) [compound 38010] | ≥ 30.85 | 3.86 (≈ 12.5 µM) | 1.93 (≈ 6.26 µM) | 1.93 (≈ 6.26 µM)
33 | COC(C(=O)C(O)C(C)O)C1Cc2cc3cc(OC4CC(OC(C)=O)C(OC5CC(O)C(OC)C(C)O5)C(C)O4)cc(O)c3c(O)c2C(=O)C1OC1CC(OC2CC(OC3CC(C)(O)C(OC(=O)C(C)C)C(C)O3)C(O)C(C)O2)C(O)C(C)O1 (centres unmarked) [compound 38270] | ≥ 59.87 | 7.48 (≈ 6.25 µM) | 3.83 (≈ 3.2 µM) | 3.83 (≈ 3.2 µM)
34 | NC(=O)c1ccccc1N [compound 38768] | ≥ 54.48 | 54.48 (≈ 400 µM) | 54.48 (≈ 400 µM) | 54.48 (≈ 400 µM)
35 | O=C(O)c1cc2ccccc2cc1Nc1ccccc1 [compound 40275] | ≥ 26.33 | 3.29 (≈ 12.5 µM) | 3.29 (≈ 12.5 µM) | 0.84 (≈ 3.19 µM)
